Test: in vivo
Settings: Sprague-Dawley, rat, po, 1.2 mg/kg

bioavailability: 27.8%
Structure (SMILES): CC(C)C[C@H](NC(=O)CNC(=O)c1cc(Cl)ccc1Cl)B(O)O [IXAZOMIB]

— ChEMBL document CHEMBL4229412, “Design, synthesis, in vitro and in vivo evaluation, and structure-activity relationship (SAR) discussion of novel dipeptidyl boronic acid proteasome inhibitors as orally available anti-cancer agents for the treatment of multiple myeloma and mechanism studies” (Bioorg Med Chem, 2018)
